Experimental data as given in patent US8796289B2 (AbbVie Inc., priority 2011, dated 2014).

Target: GST-tagged-Wee1 kinase (Homo sapiens, UniProt P30291)
Assay: Wee1 time-resolved fluorescence equilibrium binding assay (displacement of Oregon Green-labeled ATP-competitive kinase probe)
Description: Wee1 kinase was assayed using a time-resolved fluorescence equilibrium binding assay monitoring displacement of a rapidly reversible Oregon Green-labeled ATP-competitive kinase probe (N-(2-(2-(2-(4-(4-(5-chloro-4-(2-(1-hydroxycyclobutyl)thiazol-5-yl)-1H-pyrrolo[2,3-b]pyridin-2-yl)phenyl)piperazin-1-yl)ethoxy)ethoxy)ethyl)-2′,7′-difluoro-3′,6′-dihydroxy-3-oxo-3H-spiro[isobenzofuran-1,9′-xanthene]-5-carboxamide) by competitive Wee1 inhibitors.

GST-tagged-Wee1 kinase, sequence (P30291 whole entry): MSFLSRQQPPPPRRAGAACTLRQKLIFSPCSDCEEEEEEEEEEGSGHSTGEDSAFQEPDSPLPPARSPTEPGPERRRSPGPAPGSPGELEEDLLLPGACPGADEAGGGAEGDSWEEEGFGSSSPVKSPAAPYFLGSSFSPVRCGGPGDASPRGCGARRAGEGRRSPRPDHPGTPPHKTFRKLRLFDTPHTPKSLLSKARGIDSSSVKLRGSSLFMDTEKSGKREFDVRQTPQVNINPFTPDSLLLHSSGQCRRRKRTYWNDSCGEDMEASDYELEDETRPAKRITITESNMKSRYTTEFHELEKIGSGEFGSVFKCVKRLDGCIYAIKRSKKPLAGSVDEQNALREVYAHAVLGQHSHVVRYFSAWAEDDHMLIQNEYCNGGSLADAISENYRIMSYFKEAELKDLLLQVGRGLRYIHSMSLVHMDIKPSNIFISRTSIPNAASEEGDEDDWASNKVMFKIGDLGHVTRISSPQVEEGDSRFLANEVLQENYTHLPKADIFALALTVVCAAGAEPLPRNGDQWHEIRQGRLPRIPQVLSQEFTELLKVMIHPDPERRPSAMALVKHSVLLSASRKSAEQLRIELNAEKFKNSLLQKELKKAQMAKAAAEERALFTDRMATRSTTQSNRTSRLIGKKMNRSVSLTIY

Row | Ki [nM] | SMILES
1 | 0.3 | Cc1cc(Nc2ncc3c(=O)n(-c4ccccc4C)nc(-c4ccco4)c3n2)ccc1N1CCCN(C(C)C)CC1 [Example 246, 8-(furan-2-yl)-6-(2-methylphenyl)-2-({3-methyl-4-[4-(propan-2-yl)-1,4-diazepan-1-yl]phenyl}amino)pyrimido[4,5-d]pyridazin-5(6H)-one]
2 | 0.2 | O=C1CCCN1c1ccc(-c2nn(-c3c(Cl)cccc3Cl)c(=O)c3cnc(Nc4ccc5c(c4)CNCC5)nc23)cc1 [Example 247, 6-(2,6-dichlorophenyl)-8-[4-(2-oxopyrrolidin-1-yl)phenyl]-2-(1,2,3,4-tetrahydroisoquinolin-7-ylamino)pyrimido[4,5-d]pyridazin-5(6H)-one]
3 | 0.4 | CN1CCN(c2ccc(Nc3ncc4c(=O)n(-c5c(Cl)cccc5Cl)nc(-c5ccnc(C(=O)N(C)C)c5)c4n3)cc2)CC1 [Example 248, 4-[6-(2,6-dichlorophenyl)-2-{[4-(4-methylpiperazin-1-yl)phenyl]amino}-5-oxo-5,6-dihydropyrimido[4,5-d]pyridazin-8-yl]-N,N-dimethylpyridine-2-carboxamide]
4 | 1500 | O=c1c2cnc(Nc3ccc(N4CCNCC4)cc3)nc2c(-c2ccccn2)nn1C1CCCCC1 [Example 249, 6-cyclohexyl-2-{[4-(piperazin-1-yl)phenyl]amino}-8-(pyridin-2-yl)pyrimido[4,5-d]pyridazin-5(6H)-one]
5 | 0.2 | CN1CCN(c2ccc(Nc3ncc4c(=O)n(-c5c(Cl)cccc5Cl)nc(-c5ccnc(C(C)(C)O)c5)c4n3)cc2)CC1 [Example 250, 6-(2,6-dichlorophenyl)-8-[2-(2-hydroxypropan-2-yl)pyridin-4-yl]-2-{[4-(4-methylpiperazin-1-yl)phenyl]amino}pyrimido[4,5-d]pyridazin-5(6H)-one]
6 | 0.2 | O=c1c2cnc(Nc3ccc4c(c3)CNCC4)nc2c(-c2cnccn2)nn1-c1c(Cl)cccc1Cl [Example 251, 6-(2,6-dichlorophenyl)-8-(pyrazin-2-yl)-2-(1,2,3,4-tetrahydroisoquinolin-7-ylamino)pyrimido[4,5-d]pyridazin-5(6H)-one]
7 | 0.4 | COCCn1ccc(-c2nn(-c3c(Cl)cccc3Cl)c(=O)c3cnc(Nc4ccc(N5CCN(C)CC5)cc4)nc23)n1 [Example 252, 6-(2,6-dichlorophenyl)-8-[1-(2-methoxyethyl)-1H-pyrazol-3-yl]-2-{[4-(4-methylpiperazin-1-yl)phenyl]amino}pyrimido[4,5-d]pyridazin-5(6H)-one]
8 | 0.09 | O=c1c2cnc(Nc3ccc4c(c3)CNCC43CC3)nc2c(-c2ccncc2)nn1-c1c(Cl)cccc1Cl [Example 253, 6-(2,6-dichlorophenyl)-2-(2′,3′-dihydro-1′H-spiro[cyclopropane-1,4′-isoquinolin]-7′-ylamino)-8-(pyridin-4-yl)pyrimido[4,5-d]pyridazin-5(6H)-one]
9 | 0.3 | O=C1CCCN1c1ccc(-c2nn(-c3c(Cl)cccc3Cl)c(=O)c3cnc(Nc4ccc(C5CCNCC5)cc4)nc23)cc1 [Example 254, 6-(2,6-dichlorophenyl)-8-[4-(2-oxopyrrolidin-1-yl)phenyl]-2-{[4-(piperidin-4-yl)phenyl]amino}pyrimido[4,5-d]pyridazin-5(6H)-one]
10 | > 3140 | O=c1c2cnc(Nc3ccc(S(=O)(=O)N4CCOCC4)cc3)nc2c(-c2ccccc2)nn1-c1ccccc1Cl [Example 255, 6-(2-chlorophenyl)-2-{[4-(morpholin-4-ylsulfonyl)phenyl]amino}-8-phenylpyrimido[4,5-d]pyridazin-5(6H)-one]
11 | 0.3 | CN1Cc2cc(Nc3ncc4c(=O)n(-c5c(Cl)cccc5Cl)nc(-c5ccncc5)c4n3)ccc2C(C)(C)C1 [Example 256, 6-(2,6-dichlorophenyl)-8-(pyridin-4-yl)-2-[(2,4,4-trimethyl-1,2,3,4-tetrahydroisoquinolin-7-yl)amino]pyrimido[4,5-d]pyridazin-5(6H)-one]
12 | 2 | O=c1c2cnc(Nc3ccc4c(c3)CNCC43CC3)nc2c(-c2cccc(F)n2)nn1-c1c(Cl)cccc1Cl [Example 257, 6-(2,6-dichlorophenyl)-2-(2′,3′-dihydro-1′H-spiro[cyclopropane-1,4′-isoquinolin]-7′-ylamino)-8-(6-fluoropyridin-2-yl)pyrimido[4,5-d]pyridazin-5(6H)-one]
13 | 2 | C=CCn1nc(-c2ccco2)c2nc(Nc3ccc4c(c3)CN(C)CC4)ncc2c1=O [Example 258, 8-(furan-2-yl)-2-[(2-methyl-1,2,3,4-tetrahydroisoquinolin-7-yl)amino]-6-(prop-2-en-1-yl)pyrimido[4,5-d]pyridazin-5(6H)-one]
14 | 0.2 | NCCn1ccc(-c2nn(-c3c(Cl)cccc3Cl)c(=O)c3cnc(Nc4ccc(N5CCNCC5)cc4)nc23)n1 [Example 259, 8-[1-(2-aminoethyl)-1H-pyrazol-3-yl]-6-(2,6-dichlorophenyl)-2-{[4-(piperazin-1-yl)phenyl]amino}pyrimido[4,5-d]pyridazin-5(6H)-one]
15 | 0.2 | CN1CCN(c2ccc(Nc3ncc4c(=O)n(-c5c(Cl)cccc5Cl)nc(-c5ccnc(Cl)c5)c4n3)cc2)CC1 [Example 260, 8-(2-chloropyridin-4-yl)-6-(2,6-dichlorophenyl)-2-{[4-(4-methylpiperazin-1-yl)phenyl]amino}pyrimido[4,5-d]pyridazin-5(6H)-one]
16 | 0.3 | CNCCn1ccc(-c2nn(-c3c(Cl)cccc3Cl)c(=O)c3cnc(Nc4ccc(N5CCN(C)CC5)cc4)nc23)n1 [Example 261, 6-(2,6-dichlorophenyl)-8-{1-[2-(methylamino)ethyl]-1H-pyrazol-3-yl}-2-{[4-(4-methylpiperazin-1-yl)phenyl]amino}pyrimido[4,5-d]pyridazin-5(6H)-one]
17 | 590 | CN1Cc2cc(Nc3ncc4c(=O)n(C5CCCCC5)nc(-c5ccccn5)c4n3)ccc2C(C)(C)C1 [Example 262, 6-cyclohexyl-8-(pyridin-2-yl)-2-[(2,4,4-trimethyl-1,2,3,4-tetrahydroisoquinolin-7-yl)amino]pyrimido[4,5-d]pyridazin-5(6H)-one]
18 | 0.3 | CC1(C)CNCc2cc(Nc3ncc4c(=O)n(-c5c(Cl)cccc5Cl)nc(-c5ccccn5)c4n3)ccc21 [Example 263, 6-(2,6-dichlorophenyl)-2-[(4,4-dimethyl-1,2,3,4-tetrahydroisoquinolin-7-yl)amino]-8-(pyridin-2-yl)pyrimido[4,5-d]pyridazin-5(6H)-one]
19 | 12 | CC1(C)CNCc2cc(Nc3ncc4c(=O)n(-c5ccccn5)nc(-c5ccccn5)c4n3)ccc21 [Example 264, 2-[(4,4-dimethyl-1,2,3,4-tetrahydroisoquinolin-7-yl)amino]-6,8-di(pyridin-2-yl)pyrimido[4,5-d]pyridazin-5(6H)-one]
20 | 240 | O=c1c2cnc(Nc3ccc(N4CCNCC4)cc3)nc2c(-c2ccccn2)nn1CCO [Example 267, 6-(2-hydroxyethyl)-2-{[4-(piperazin-1-yl)phenyl]amino}-8-(pyridin-2-yl)pyrimido[4,5-d]pyridazin-5(6H)-one]
21 | 0.1 | COCn1ccc(-c2nn(-c3c(Cl)cccc3Cl)c(=O)c3cnc(Nc4ccc(N5CCN(C)CC5)cc4)nc23)n1 [Example 268, 6-(2,6-dichlorophenyl)-8-[1-(methoxymethyl)-1H-pyrazol-3-yl]-2-{[4-(4-methylpiperazin-1-yl)phenyl]amino}pyrimido[4,5-d]pyridazin-5(6H)-one]
22 | 58 | C=CCn1nc(-c2ccco2)c2nc(Nc3ccc(N4CCCC4=O)cc3)ncc2c1=O [Example 269, 8-(furan-2-yl)-2-{[4-(2-oxopyrrolidin-1-yl)phenyl]amino}-6-(prop-2-en-1-yl)pyrimido[4,5-d]pyridazin-5(6H)-one]
23 | < 1 | CN1CCN(c2ccc(Nc3ncc4c(=O)n(-c5c(Cl)cccc5Cl)nc(-c5ccn(CCO)n5)c4n3)cc2)CC1 [Example 270, 6-(2,6-dichlorophenyl)-8-[1-(2-hydroxyethyl)-1H-pyrazol-3-yl]-2-{[4-(4-methylpiperazin-1-yl)phenyl]amino}pyrimido[4,5-d]pyridazin-5(6H)-one]
24 | 0.4 | CN1CCN(c2ccc(Nc3ncc4c(=O)n(-c5c(Cl)cccc5Cl)nc(-c5cnccn5)c4n3)cc2)CC1 [Example 271, 6-(2,6-dichlorophenyl)-2-{[4-(4-methylpiperazin-1-yl)phenyl]amino}-8-(pyrazin-2-yl)pyrimido[4,5-d]pyridazin-5(6H)-one]
25 | 100 | CC(C)n1nc(-c2ccccn2)c2nc(Nc3ccc(N4CCN(C)CC4)cc3)ncc2c1=O [Example 272, 2-{[4-(4-methylpiperazin-1-yl)phenyl]amino}-6-(propan-2-yl)-8-(pyridin-2-yl)pyrimido[4,5-d]pyridazin-5(6H)-one]
26 | 11 | CC(C)n1nc(-c2ccncc2)c2nc(Nc3ccc(N4CCN(C)CC4)cc3)ncc2c1=O [Example 273, 2-{[4-(4-methylpiperazin-1-yl)phenyl]amino}-6-(propan-2-yl)-8-(pyridin-4-yl)pyrimido[4,5-d]pyridazin-5(6H)-one]
27 | 179 | CC(C)n1nc(-c2ccccn2)c2nc(Nc3ccc4c(c3)CN(C)CC43CC3)ncc2c1=O [Example 274, 2-[(2′-methyl-2′,3′-dihydro-1′H-spiro[cyclopropane-1,4′-isoquinolin]-7′-yl)amino]-6-(propan-2-yl)-8-(pyridin-2-yl)pyrimido[4,5-d]pyridazin-5(6H)-one]
28 | 3.2 | CC(C)n1nc(-c2ccncc2)c2nc(Nc3ccc4c(c3)CN(C)CC43CC3)ncc2c1=O [Example 275, 2-[(2′-methyl-2′,3′-dihydro-1′H-spiro[cyclopropane-1,4′-isoquinolin]-7′-yl)amino]-6-(propan-2-yl)-8-(pyridin-4-yl)pyrimido[4,5-d]pyridazin-5(6H)-one]
29 | 1.1 | CN1CCN(c2ccc(Nc3ncc4c(=O)n(-c5c(Cl)cccc5Cl)nc(-c5ccc(Br)cc5)c4n3)cc2)CC1 [Example 276, 8-(4-bromophenyl)-6-(2,6-dichlorophenyl)-2-{[4-(4-methylpiperazin-1-yl)phenyl]amino}pyrimido[4,5-d]pyridazin-5(6H)-one]
